From ChEMBL document CHEMBL3868615, “Decahydrobenzoquinolin-5-one sigma receptor ligands: Divergent development of both sigma 1 and sigma 2 receptor selective examples” (Bioorg Med Chem Lett, 2016)

Columns and labels:
[1] = target: Delta-type opioid receptor (Homo sapiens, UniProt P41143); assay: Displacement of [3H]DADLE from human DOR expressed in HEK cells measured after 90 mins by microbeta scintillation counting method; format: cell-based, HEK293
[2] = target: Sigma non-opioid intracellular receptor 1 (Cavia porcellus, UniProt Q60492); assay: Displacement of [3H]pentazocine from guinea pig sigma1 receptor measured after 90 mins by microbeta scintillation counting method
[3] = Displacement of [3H]DTG from sigma2 receptor in rat PC12 cells measured after 90 mins by microbeta scintillation counting method; format: cell-based; details: pc-12
[4] = test system: PC-12; assay: Selectivity ratio of Ki for sigma2 receptor in rat PC12 cells to Ki for guinea pig sigma1 receptor; format: cell-based
[5] = target: 5-hydroxytryptamine receptor 1B (Homo sapiens, UniProt P28222); assay: Displacement of [3H]5-CT from human 5-HT1B receptor expressed in HEK cells measured after 90 mins by microbeta scintillation counting method; format: cell-based, HEK293
[6] = target: 5-hydroxytryptamine receptor 2C (Homo sapiens, UniProt P28335); assay: Displacement of [3H]Mesulergine from human 5-HT2C receptor expressed in Flp-IN HEK cells measured after 90 mins by microbeta scintillation counting method; format: cell-based, HEK293
[7] = target: 5-hydroxytryptamine receptor 3A (Homo sapiens, UniProt P46098); assay: Displacement of [3H]GR65630 from human 5-HT3 receptor expressed in HEK-T cells measured after 90 mins by microbeta scintillation counting method; format: cell-based
[8] = target: Alpha-1A adrenergic receptor (Homo sapiens, UniProt P35348); assay: Displacement of [3H]Prazosin from human Alpha1A receptor measured after 90 mins by microbeta scintillation counting method
[9] = target: Beta-2 adrenergic receptor (Homo sapiens, UniProt P07550); assay: Displacement of [3H]CGP12177 from human beta2 receptor expressed in HEK Flp-In cells measured after 90 mins by microbeta scintillation counting method; format: cell-based, HEK293
[10] = target: D(4) dopamine receptor (Homo sapiens, UniProt P21917); assay: Displacement of [3H]N-methylspiperone from human D4 receptor measured after 90 mins by microbeta scintillation counting method
[11] = Displacement of [3H]Muscimol from GABAA receptor in rat brain measured after 90 mins by microbeta scintillation counting method; format: tissue-based
[12] = target: T1, Histamine H3 receptor (Homo sapiens, UniProt Q9Y5N1); assay: Displacement of [3H]alpha-methylhistamine from human H3 receptor expressed in HEK Flp-In cells measured after 90 mins by microbeta scintillation counting method; format: cell-based, HEK293
[13] = target: Muscarinic acetylcholine receptor M5 (Homo sapiens, UniProt P08912); assay: Binding affinity to human M5 receptor expressed in CHO cells measured after 90 mins by radioligand binding assay; format: cell-based
[14] = target: Sodium-dependent noradrenaline transporter (Homo sapiens, UniProt P23975); assay: Displacement of [3H]Nisoxetine from human NET expressed in HEK cells measured after 90 mins by microbeta scintillation counting method; format: cell-based, HEK293
[15] = target: Muscarinic acetylcholine receptor M3 (Homo sapiens, UniProt P20309); assay: Binding affinity to human M3 receptor expressed in CHO cells at 10 uM measured after 90 mins by radioligand binding assay relative to control; format: cell-based
[16] = target: Muscarinic acetylcholine receptor M5 (Homo sapiens) (UniProt P08912); assay: Binding affinity to human M5 receptor expressed in CHO cells at 10 uM measured after 90 mins by radioligand binding assay relative to control; format: cell-based
[17] = target: 5-hydroxytryptamine receptor 2C (Homo sapiens) (UniProt P28335); details: HEK293, 10 uM
[18] = target: Sodium-dependent dopamine transporter (Homo sapiens, UniProt Q01959); details: HEK293, 10 uM
[19] = target: T1, Histamine H3 receptor; details: HEK293, 10 uM
[20] = target: 5-hydroxytryptamine receptor 2B (Homo sapiens, UniProt P41595); details: HEK293, 10 uM
[21] = test system: PC-12; assay: Selectivity ratio of Ki for guinea pig sigma1 receptor to Ki for sigma2 receptor in rat PC12 cells; format: cell-based
[22] = target: Alpha-2A adrenergic receptor (Homo sapiens) (UniProt P08913); details: MDCK, 10 uM
[23] = target: Alpha-2B adrenergic receptor (Homo sapiens) (UniProt P18089); details: HEK-T, 10 uM
[24] = target: Alpha-2C adrenergic receptor (Homo sapiens) (UniProt P18825); details: MDCK, 10 uM
[25] = target: Kappa-type opioid receptor (Homo sapiens, UniProt P41145); details: HEKT, 10 uM
[26] = target: Mu-type opioid receptor (Homo sapiens, UniProt P35372); details: HEK293, 10 uM

T1 sequence (Q9Y5N1 whole entry): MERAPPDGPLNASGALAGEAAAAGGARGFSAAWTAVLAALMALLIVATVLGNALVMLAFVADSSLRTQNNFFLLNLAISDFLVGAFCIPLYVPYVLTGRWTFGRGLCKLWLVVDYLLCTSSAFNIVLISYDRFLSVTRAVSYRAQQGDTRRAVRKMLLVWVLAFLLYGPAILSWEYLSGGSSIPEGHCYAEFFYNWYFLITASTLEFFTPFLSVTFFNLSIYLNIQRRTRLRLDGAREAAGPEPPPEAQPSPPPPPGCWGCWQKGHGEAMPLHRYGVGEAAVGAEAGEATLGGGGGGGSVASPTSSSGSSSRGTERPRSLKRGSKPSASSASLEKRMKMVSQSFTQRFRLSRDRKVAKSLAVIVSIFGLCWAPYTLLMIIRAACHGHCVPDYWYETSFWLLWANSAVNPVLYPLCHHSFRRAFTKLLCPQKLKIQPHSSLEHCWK
Chain of D(4) dopamine receptor (P21917 whole entry): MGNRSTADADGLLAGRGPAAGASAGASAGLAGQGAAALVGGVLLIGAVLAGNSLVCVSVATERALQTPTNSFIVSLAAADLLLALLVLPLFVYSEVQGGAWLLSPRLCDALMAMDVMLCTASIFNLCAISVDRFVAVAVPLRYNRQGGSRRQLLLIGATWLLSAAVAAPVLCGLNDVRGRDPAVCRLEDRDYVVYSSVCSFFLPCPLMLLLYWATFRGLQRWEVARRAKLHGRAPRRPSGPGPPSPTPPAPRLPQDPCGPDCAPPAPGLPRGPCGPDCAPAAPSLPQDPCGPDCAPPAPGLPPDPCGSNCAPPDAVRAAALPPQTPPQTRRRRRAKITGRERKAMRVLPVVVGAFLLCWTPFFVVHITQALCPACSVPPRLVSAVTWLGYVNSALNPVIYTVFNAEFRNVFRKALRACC
Chain of Delta-type opioid receptor (P41143 whole entry): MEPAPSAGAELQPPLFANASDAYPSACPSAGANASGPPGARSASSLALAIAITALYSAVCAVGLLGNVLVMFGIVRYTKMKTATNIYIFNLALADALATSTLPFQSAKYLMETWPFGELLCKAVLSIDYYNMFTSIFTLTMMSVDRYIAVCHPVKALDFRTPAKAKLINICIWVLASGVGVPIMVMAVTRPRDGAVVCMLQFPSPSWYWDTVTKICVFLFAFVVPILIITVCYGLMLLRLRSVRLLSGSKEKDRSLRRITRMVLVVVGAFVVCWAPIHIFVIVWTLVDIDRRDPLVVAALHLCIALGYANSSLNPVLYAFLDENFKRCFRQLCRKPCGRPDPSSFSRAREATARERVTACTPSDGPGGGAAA
Chain of Beta-2 adrenergic receptor (P07550 whole entry): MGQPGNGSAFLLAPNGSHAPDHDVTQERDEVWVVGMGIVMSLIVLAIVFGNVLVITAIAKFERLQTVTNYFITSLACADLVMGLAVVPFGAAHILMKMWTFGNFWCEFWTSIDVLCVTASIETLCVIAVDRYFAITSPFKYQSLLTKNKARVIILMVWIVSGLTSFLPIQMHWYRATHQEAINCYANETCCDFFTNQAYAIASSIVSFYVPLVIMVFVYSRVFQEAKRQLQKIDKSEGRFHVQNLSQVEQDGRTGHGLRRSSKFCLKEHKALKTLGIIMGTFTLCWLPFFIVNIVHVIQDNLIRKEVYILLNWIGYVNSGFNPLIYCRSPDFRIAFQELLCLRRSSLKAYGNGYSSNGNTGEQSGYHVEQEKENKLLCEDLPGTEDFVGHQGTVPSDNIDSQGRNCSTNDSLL
Chain of 5-hydroxytryptamine receptor 1B (P28222 whole entry): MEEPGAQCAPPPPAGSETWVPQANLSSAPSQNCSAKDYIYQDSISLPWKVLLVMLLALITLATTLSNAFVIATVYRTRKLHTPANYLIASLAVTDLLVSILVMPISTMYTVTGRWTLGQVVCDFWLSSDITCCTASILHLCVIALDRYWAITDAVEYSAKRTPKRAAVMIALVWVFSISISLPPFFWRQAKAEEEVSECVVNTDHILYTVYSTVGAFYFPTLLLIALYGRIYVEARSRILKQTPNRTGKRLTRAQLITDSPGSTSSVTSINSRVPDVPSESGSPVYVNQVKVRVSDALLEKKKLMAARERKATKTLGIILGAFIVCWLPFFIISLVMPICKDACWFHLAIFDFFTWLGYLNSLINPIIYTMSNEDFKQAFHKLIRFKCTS
Chain of Muscarinic acetylcholine receptor M5 (P08912 whole entry): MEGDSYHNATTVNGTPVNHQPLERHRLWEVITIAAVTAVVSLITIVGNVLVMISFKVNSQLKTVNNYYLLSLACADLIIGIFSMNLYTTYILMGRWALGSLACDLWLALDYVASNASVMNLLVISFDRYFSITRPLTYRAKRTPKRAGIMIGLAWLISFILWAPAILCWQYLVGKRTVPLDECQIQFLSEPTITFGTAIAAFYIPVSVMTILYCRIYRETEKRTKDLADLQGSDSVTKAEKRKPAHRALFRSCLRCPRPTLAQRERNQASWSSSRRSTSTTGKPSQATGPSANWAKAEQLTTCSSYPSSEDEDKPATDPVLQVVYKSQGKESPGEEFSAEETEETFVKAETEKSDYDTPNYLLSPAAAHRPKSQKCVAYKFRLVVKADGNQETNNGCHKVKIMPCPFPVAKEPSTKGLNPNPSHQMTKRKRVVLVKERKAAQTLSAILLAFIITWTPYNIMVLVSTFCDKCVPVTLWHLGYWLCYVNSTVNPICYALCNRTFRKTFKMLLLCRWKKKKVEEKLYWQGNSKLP
Chain of Sigma non-opioid intracellular receptor 1 (Q60492 whole entry): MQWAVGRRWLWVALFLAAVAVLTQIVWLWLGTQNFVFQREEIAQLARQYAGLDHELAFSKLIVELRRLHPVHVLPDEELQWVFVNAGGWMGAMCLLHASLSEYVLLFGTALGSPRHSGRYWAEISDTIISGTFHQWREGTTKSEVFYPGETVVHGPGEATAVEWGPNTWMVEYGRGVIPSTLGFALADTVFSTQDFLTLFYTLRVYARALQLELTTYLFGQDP
Chain of 5-hydroxytryptamine receptor 3A (P46098 whole entry): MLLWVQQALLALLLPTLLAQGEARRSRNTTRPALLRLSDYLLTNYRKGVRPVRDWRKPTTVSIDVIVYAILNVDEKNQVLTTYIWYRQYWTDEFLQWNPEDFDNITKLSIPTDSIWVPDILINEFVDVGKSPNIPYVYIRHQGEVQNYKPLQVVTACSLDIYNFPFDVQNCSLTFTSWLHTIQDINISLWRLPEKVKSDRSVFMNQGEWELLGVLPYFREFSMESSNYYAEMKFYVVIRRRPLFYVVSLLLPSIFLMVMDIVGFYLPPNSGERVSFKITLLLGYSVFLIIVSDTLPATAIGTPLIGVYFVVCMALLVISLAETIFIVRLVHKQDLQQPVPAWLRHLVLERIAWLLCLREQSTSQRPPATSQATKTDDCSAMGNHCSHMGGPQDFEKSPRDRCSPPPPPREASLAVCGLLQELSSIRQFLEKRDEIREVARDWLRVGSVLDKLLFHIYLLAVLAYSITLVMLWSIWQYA
Chain of Alpha-1A adrenergic receptor (P35348 whole entry): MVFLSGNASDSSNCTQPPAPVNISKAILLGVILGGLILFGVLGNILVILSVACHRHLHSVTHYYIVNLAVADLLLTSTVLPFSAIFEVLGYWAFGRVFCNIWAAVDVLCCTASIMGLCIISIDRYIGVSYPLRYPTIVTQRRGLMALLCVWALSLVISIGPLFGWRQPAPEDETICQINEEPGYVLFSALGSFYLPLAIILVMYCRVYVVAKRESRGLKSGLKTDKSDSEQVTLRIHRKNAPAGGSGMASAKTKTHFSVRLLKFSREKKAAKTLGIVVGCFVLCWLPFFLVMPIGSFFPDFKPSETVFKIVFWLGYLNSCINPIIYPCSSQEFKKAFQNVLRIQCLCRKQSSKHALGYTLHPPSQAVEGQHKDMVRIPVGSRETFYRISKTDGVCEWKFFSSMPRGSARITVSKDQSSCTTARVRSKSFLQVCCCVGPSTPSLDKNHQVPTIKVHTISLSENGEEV
Chain of 5-hydroxytryptamine receptor 2C (P28335 whole entry): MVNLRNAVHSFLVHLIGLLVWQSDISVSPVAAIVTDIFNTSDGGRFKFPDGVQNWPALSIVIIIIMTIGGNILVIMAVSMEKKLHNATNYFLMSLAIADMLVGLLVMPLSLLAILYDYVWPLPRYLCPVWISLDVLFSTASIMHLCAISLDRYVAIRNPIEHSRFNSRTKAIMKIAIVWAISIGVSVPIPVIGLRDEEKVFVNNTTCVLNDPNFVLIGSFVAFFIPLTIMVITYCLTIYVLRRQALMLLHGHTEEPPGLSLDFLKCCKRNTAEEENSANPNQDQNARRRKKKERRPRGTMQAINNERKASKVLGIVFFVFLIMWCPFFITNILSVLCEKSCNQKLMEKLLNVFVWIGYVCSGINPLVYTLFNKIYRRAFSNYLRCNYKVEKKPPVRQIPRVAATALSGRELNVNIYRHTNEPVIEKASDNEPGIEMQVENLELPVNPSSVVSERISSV
Chain of Sodium-dependent noradrenaline transporter (P23975 whole entry): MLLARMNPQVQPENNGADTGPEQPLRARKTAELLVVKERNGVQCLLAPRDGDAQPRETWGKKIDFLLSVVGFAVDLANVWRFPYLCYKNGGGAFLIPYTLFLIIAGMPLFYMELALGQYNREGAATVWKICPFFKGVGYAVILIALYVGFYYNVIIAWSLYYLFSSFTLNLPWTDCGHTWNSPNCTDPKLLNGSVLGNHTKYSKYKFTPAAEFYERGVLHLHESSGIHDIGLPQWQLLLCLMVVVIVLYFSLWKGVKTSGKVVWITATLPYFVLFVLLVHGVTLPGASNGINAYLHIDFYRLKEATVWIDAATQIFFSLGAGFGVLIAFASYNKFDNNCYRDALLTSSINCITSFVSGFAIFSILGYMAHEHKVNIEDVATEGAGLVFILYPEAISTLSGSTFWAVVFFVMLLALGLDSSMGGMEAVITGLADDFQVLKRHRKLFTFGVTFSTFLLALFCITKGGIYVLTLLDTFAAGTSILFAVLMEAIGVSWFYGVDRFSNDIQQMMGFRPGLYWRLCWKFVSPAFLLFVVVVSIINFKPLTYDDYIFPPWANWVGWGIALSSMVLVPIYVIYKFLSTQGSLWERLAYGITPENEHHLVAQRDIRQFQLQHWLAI
Chain of Muscarinic acetylcholine receptor M5 (Homo sapiens) (P08912 whole entry): as the sequence (P08912 whole entry) above
Chain of 5-hydroxytryptamine receptor 2C (Homo sapiens) (P28335 whole entry): as the sequence (P28335 whole entry) above

SMILES	Ki [1] [µM]	Ki [2] [µM]	Ki [3] [µM]	Ratio Ki [4]	Ki [5] [µM]	Ki [6] [µM]	Ki [7] [µM]	Ki [8] [µM]	Ki [9] [µM]	Ki [10] [µM]	Ki [11] [µM]	Ki [12] [µM]	Ki [13] [µM]	Ki [14] [µM]	other results
CN1CC[C@H]2CC(=O)[C@H](Cc3ccccc3)[C@H]3CCC[C@@H]1[C@H]23	> 10	0.0015 to 0.002	0.148	98.7	> 10	1.68	> 10	> 10	> 10	> 10	> 10	0.814	3.49	> 10	Activity [15]: > 50%; Activity [16]: > 50%; inhibition [17]: > 50%; inhibition [18]: > 50%; inhibition [19]: > 50%; inhibition [20]: > 50%
CCCN1CC[C@H]2c3cc4ccc(C(F)(F)F)cc4nc3[C@H](CC)[C@H]3CCC[C@@H]1[C@@H]32	> 10	0.423	0.015	0.04	> 10	> 10	> 10	> 10	> 10	> 10	> 10	> 10	> 10	> 10	Ratio Ki [21]: 28; inhibition [22]: > 50%; inhibition [23]: > 50%; inhibition [24]: > 50%; inhibition [25]: > 50%; inhibition [26]: > 50%
